Assay results: patent EP1825852A1, “ST104P as an anti-angiogenic agent” (Sagittarius Life Science Corp., priority 2006, dated 2007)
Where two headings read alike, the source gives them in different places.

What was measured:
[1] = system: CAM; assay: Chorioallantoic membrane (CAM) assay
Experimental: The CAMs in 8-day old chicken embryos were incubated with saline or ST104P (50 or 200 µg in saline) for 48 h. The angiogenesis profiles on CAMs were recorded under dissection microscope.
The CAM assay was carried out as described previously (Sheu et al., Anticancer Res 18, 4435-4441,1998). Briefly, fertilized White Leghorn chicken eggs were purchased from Taiwan Provincial Research Institute for Animal Health (Hsin-Chu, Taiwan) and incubated at 37 °C with 60% humidity. On day 3, a square window was opened in the shell, and 2 to 3 ml of albumen was removed to allow detachment of the developing CAM. The window was sealed with a glass, and the eggs were returned to the incubator. On day 8, 50-100 µg ST104P in saline was injected onto the top of the CAM. The CAMs were examined daily until day 10-12, when the angiogenic response peaks, and photographed in ovo with a stereomicroscope equipped with Zeiss MC63 camera system (Zeiss, Oberkochen, Germany). The experiments were carried out using 10 eggs per group.

[2] = system: MMP-9; assay: MMPs secretion by endothelial cells, gelatin zymography; format: cell-based; conditions: BAEC and EA.hy926, even at dose as low as 10 µg/ml, 24 h, conditioned media
Experimental: (§1) ST104P decreases the MMPs secretion by endothelial cells. The conditioned media of BAECs or EA.hy926 cells (in 24-well plate at 1x10^4 cells/well) treated with PBS or ST104P (10-500 µg/ml) for […] were collected to analyze the expression of MMPs by gelatin-PAGE zymography.
(§2) Secretion of MMPs by endothelial cells was assessed by 0.1% gelatin-SDS-PAGE zymography. Briefly, endothelial cells near 80% confluence were washed twice with serum-free media and treated with various doses of vasostatin for 24-48 h: Conditioned media were collected and assayed for protein concentration by Bradford assay. Aliquots of conditioned media were subjected to separation with 10% SDS-PAGE containing 0.1% type A gelatin (Sigma; St. Louis, MO). After electrophoresis, gel was washed twice with 2.5% Triton X-100, incubated in buffer containing 40 mM Tris-HCl, pH 8.0, 10 mM CaCl2, 0.01% sodium azide at 37 °C for 12-24 h, stained with 0.25% Coomassie Blue R-250 in 50% methanol and 10% acetic acid for 1 h, and destained with 10 % acetic acid, 20% methanol. The gelatinolytic regions by MMPs were visualized as white bands in blue background.

[3] = system: MMP-2; assay: as above; format: cell-based; conditions: BAEC and EA.hy926, even at dose as low as 10 µg/ml, 24 h, conditioned media
Experimental: as §1, §2

[4] = system: 3T3 cells; assay: Cytotoxicity: cell proliferation assay (crystal violet stain) and morphology; format: cell-based
Experimental: (§3) Fig.1. The cytotoxicity of ST104P in different types of cells. […] After treatment of ST104P at 10-500 µg/ml in DMEM medium containing 10% FCS for 24 h, the morphologies of BAEC and 3T3 cells were monitored under phase contrast microscopy. The pictures were taken at 400× magnification. (B). The dose-dependent effect of ST104P on the proliferation of different cells. After treatment with ST104P at 10-500 µg/ml or PBS for 48 h, the viability of various cells was determined by crystal violet method in an ELISA reader. Each data represent mean ± SD of quadruplicate experiments. Asterisks indicated statistic significance versus control (P<0.001).
(§4) Human umbilical vein endothelial cells (HUVEC; passage 3 to 6) were isolated from umbilical veins and cultured in RPMI 1640 medium (Life Technologies, Gaithersburg, MD) containing 15% fetal calf serum, 20 U/ml porcine heparin (Sigma Chemical Co), and 100 µg/ml endothelial cell growth supplement (Calbiochem; La Jolla, CA). […]
(§5) The effect of ST104P on the viability of various cells was determined using crystal violet stain assay. […] The dye in viable cells was measured by reading the optical density at 590 nm using a scanning multi-well spectrophotometer (ELISA reader; Dynatech Laboratories, Chantilly, VA).

[5] = system: BAEC; assay: as above; format: cell-based, Bovine
Experimental: as §3
Human umbilical vein endothelial cells (HUVEC; passage 3 to 6) were isolated from umbilical veins and cultured in RPMI 1640 medium (Life Technologies, Gaithersburg, MD) containing 15% fetal calf serum, 20 U/ml porcine heparin (Sigma Chemical Co), and 100 µg/ml endothelial cell growth supplement (Calbiochem; La Jolla, CA). Bovine aortic endothelial (BAEC) cells, 3T3 cells, and LL2 Lewis lung carcinoma cells were cultured with DMEM (Dulbecco's Modified Eagle Medium; Gibco BRL, Rockville, MD) containing 10% fetal calf serum (PAA, Austria), 2 mM glutamine, 100 U/ml penicillin and 100 µg/ml streptomycin (Gibco BRL, Rockville, MD) in 5% CO2 at 37 °C. Human vascular endothelial EA.hy926 cells were cultured in DMEM (Dulbecco's Modified Eagle Medium; Gibco BRL, Rockville, MD) containing 10% fetal calf serum (PAA, Austria), 100 µM sodium hypoxanthine, 0.4 µM aminopterin, 16 µM thymidine (HAT; Gibco BRL, Rockville, MD), 2 mM glutamine, 100 U/ml penicillin and 100 µg/ml streptomycin (Gibco BRL, Rockville, MD) in 5% CO2 at 37 °C.
The effect of ST104P on the viability of various cells was determined using crystal violet stain assay. Briefly, cells cultured in 96-well plate (2-4 x10^3 cells/well) were treated with various doses of ST104P for 48 h. […] The dye in viable cells was measured by reading the optical density at 590 nm using a scanning multi-well spectrophotometer (ELISA reader; Dynatech Laboratories, Chantilly, VA).

[6] = system: EA.hy926; assay: Cell migration assay (Boyden chamber, bFGF as chemoattractant); format: cell-based, Human; conditions: EA.hy926, incubation 6 h, bFGF 100 ng/ml
[7] = system: EA.hy926 cells; assay: Tube formation assay in Matrigel; format: cell-based, Human; conditions: 20-100 µg/ml
Experimental: (§6) Fig. 3. ST104P abolished the tube formation of endothelial cells. Application of ST104P perturbed tubular network of BAEC or EA.hy9236 cells in Matrigel. Endothelial cells were applied to Matrigel-coated plate in the absence or presence of ST104P. After 8 h, the tubular structures of BAEC cells were monitored and recorded under light microscopy. The pictures were taken at 400× magnification.
(§7) Matrigel (Becton Dickinson; Bedford, MA) was diluted with cold serum-free medium to 10 mg/ml. Two hundred µl of the diluted solution were added to each well in 24-well plate and allowed to form a gel at 37 °C for 30 min. BAEC or HUVEC (1.5 x 10^5 cells per ml) were initially incubated for 15 min with various doses of ST104P in complete medium. Two hundred µl of the cell suspension (3 x 10^4 cells) were then subsequently added to each well and incubated for 6-8 h at 37 °C in 5% CO2. Under these conditions endothelial cells form delicate networks of tubes that are detectable within 2-3 h and are fully developed after 8-12 h. After incubation with ST104P, the wells were washed and the Matrigel and its endothelial tubes were fixed with 3% paraformaldehyde.

[8] = system: Lewis lung carcinoma; format: in vivo, C57BL/6J mice
Experimental: Fig. 6. Injection of ST104P suppressed tumor growth of Lewis lung carcinoma in mice. The subcutaneous dorsa of mice were implanted with Lewis lung carcinomas. The tumor sizes in mice during treatment with ST104P or control were recorded. […] Each point represents mean ± SEM for ten mice.
Fig. 7. Injection of ST104P prolonged the survival of tumor-bearing mice. The subcutaneous dorsa of mice were implanted with Lewis lung carcinomas. The tumor sizes in mice during treatment with ST104P or control were recorded. […] Each point represents mean ± SEM for ten mice. The overall survival rates of ten mice in PBS- or ST104P-treated group were recorded.
Animal study was carried out in the animal facility of Kaohsiung Veterans General Hospital in accordance with institutional guidelines. Male C57BL/6J mice (6- to 8-week-old; Animal Center of National Cheng Kung University, Taiwan) were used. Mice were acclimated and caged in groups of four or less. All mice were fed with a diet of animal chow and water ad libitum. Animals were anesthetized in a methoxyflurane chamber prior to all procedures and were observed until fully recovered. Animals were sacrificed by a lethal dose of methoxyflurane.
C57BL/6J mice were implanted with Lewis lung carcinomas cells using the techniques described previously (O'Reilly et al., Cell 88, 277-285,1997). Briefly, the LL2 Lewis lung carcinoma cells were resuspended in PBS at the concentration of 2.5 x 10^6 cells per ml and injected into C57B16/J mice (n = 20) with 0.1 ml of the cell suspension to induce tumor. Tumors were measured with a dial-caliper and volumes were determined using the formula width^2 × length × 0.52. After tumor volumes reached 100-200 mm^3, mice were randomized into two groups receiving periodic injection of ST104P (n=10) or saline (n = 10) by subcutaneous injection at a site near tumor. The measurement of tumor size was terminated when mice began to die. In addition, the survival rate of mice in different groups was recorded and analyzed by Kaplan-Mier Survival analysis.

[9] = system: BAEC; assay: Tube formation assay in Matrigel; format: cell-based, Bovine; conditions: 20-100 µg/ml
Experimental: as §6, §7

[10] = system: BAEC; assay: Cell migration assay (Boyden chamber, bFGF as chemoattractant); format: cell-based, Bovine; conditions: incubation 6 h, bFGF 100 ng/ml
Experimental: Fig. 2. ST104P inhibited the migration of endothelial cells. The effect of ST104p on migration of endothelial cells. BAEC were plated in 6-well plate (1 x 10^6 cells per well) and treated with vasostatin of indicated dose for 12 h. After trypsinization, endothelial cells were applied to top wells in Boyden chamber to initiated migration toward chemoattractant bFGF (100 ng/ml) in the bottom wells. The migrated cells on filter were stained and counted. Each point represents mean ± SEM of triplicate experiments.
Endothelial cells were treated with ST104P of indicated doses for 6-12 h, harvested by trysinization, collected by centrifugation, resuspended in DMEM media containing 0.1% BSA, and seeded in triplicate for each dose and controls in the upper compartment of the chamber (1.2 x 10^5 cells in 400 µl). The lower compartment was filled with 200 µl of the DMEM media containing 100 ng/ml bFGF (R&D, Minneapolis, MN) as the chemoattractant, or with DMEM media containing 0.1% BSA as the negative control (to evaluate random migration). […] After incubation for 2-4 h in a humidified 5% CO2 atmosphere at 37 °C, cells on the upper side of the filter were removed, and those that had migrated to the lower side were fixed in absolute ethanol, stained with 10% Giemsa solution (Merck, Germany), and counted as a mean ± SD per filter under five different high power fields.

[11] = in vivo
[12] = system: EA.hy926; assay: Cytotoxicity: cell proliferation assay (crystal violet stain); format: cell-based, Human
Experimental: as §3, §4, §5

[13] = molar equivalent given for 500 µg/ml, read-out: IC50
[14] = proliferation/viability, 48 h, crystal violet

Substance: tetrameric cyclic compound of 4,5-dihydroxynaphthalene-2,7, disulfonic acid linked by methylene bridges [ST104P]
- inhibition of angiogenesis ([1]; 50 µg per CAM, 8-day old chick embryos): 50%
- mortality of chick embryos ([1]; 200 µg per CAM, 9 out of 10 died versus 0 in PBS-treated group, used as index of angiogenesis inhibition): 90%
- vascular network on CAMs ([1]; 50 or 200 µg in saline, 48 h, 8-day old chicken embryos): severely destroyed
- secretion of MMP-9 by endothelial cells [2]: potently inhibited the secretion
- secretion of MMP-2 by endothelial cells [3]: potently inhibited the secretion
- IC50 [4, 13]: > 350 µM
- IC50 [4, 14]: > 500 µg/mL
- morphologies of cells ([5]; 10-500 µg/ml, DMEM with 10% FCS, 24 h, phase contrast microscopy): altered the morphologies of endothelial cells
- IC50 [5, 13]: > 350 µM
- IC50 [5, 14]: > 500 µg/mL
- IC50 (migration toward chemoattractant bFGF) [6]: 100 µg/mL
- tube formation (vessel-like structure in Matrigel) [7]: effectively abolished the vessel-like structure
- decrease of average tumor size versus saline-treated groups ([8]; 100 µg, subcutaneous injection for four times): ~ 40%
- average tumor size ([8]; 100 µg, subcutaneous injection for four times, saline-treated 4876 ± 670 mm^3, P < 0.05): 2620 ± 320 mm^3
- weight loss or adverse effects ([8]; mouse, in vivo): no evident weight loss or adverse effects
- survival of tumor-bearing mice ([8]; versus vehicle-treated group, P < 0.01, Kaplan-Meier): survived significantly longer
- tube formation (vessel-like structure in Matrigel) [9]: effectively abolished the vessel-like structure
- IC50 (migration toward chemoattractant bFGF) [10]: 100 µg/mL
- tolerability [11]: well tolerated
- IC50 ([12]; EA.hy926, molar equivalent given for 500 µg/ml, read-out: IC50): > 350 µM
- IC50 ([12]; proliferation/viability, EA.hy926, 48 h, crystal violet): > 500 µg/mL
